Our source for the Kd, IC50 and EC50 values is patent US12570615B2, “Quinazolinone derivatives” (Hoffmann-La Roche Inc., priority 2021, dated 2026).

pEC50, pIC50, pKd: −log10 of the molar value.

Assay [1] addresses BRAF (V600E) (Homo sapiens, UniProt P15056, V600E). Kind of assay: KD BRAF (V600E) (Table 1). In kind it is binding.
Assay [2] deals with BRAF (wt) (Homo sapiens, UniProt P15056). As to the kind of experiment: KD BRAF (wt) (Table 1). In kind it is binding.
Assay [3] deals with P-ERK (ERK phospho-T202/Y204) in A375 cells expressing V600E mutated BRAF. As to the kind of experiment: HTRF assay for P-ERK determination in A375 cells (BRAF inhibition). In kind it is cell-based. The following applies: Homo sapiens, A-375, P-ERK level, drug incubation 1 hour, DMSO = 100%, 10 μM Dabrafenib = 0%. An excerpt: (§1) A375 is a cellular cancer model expressing V600E mutated BRAF and HCT116 a cellular cancer model expressing WT BRAF. First generation BRAF inhibitors such as e.g. dabrafenib induce a paradox effect on tumour cells in that they inhibit the growth of V600E mutated BRAF cells (such as e.g. A375), while they activate growth in WT BRAF cells (such as e.g. HCT 116). ERK 1,2 phosphorylation (terminal member of the phosphorylation cascade of the MAPK pathway) is hereafter reported as main readout for the activation status of the MAPK pathway. DMEM no-phenol red medium supplemented with L-glutamine was purchased from (Thermo Fisher Scientific). Fetal bovine serum (FBS) was purchased from VWR. Advanced ERK phospho-T202/Y204 kit—10,000 tests was purchased from Cisbio cat #64AERPEH. A375 (catalog #CRL-1619) and HCT116 (catalog #CCL-247) cells were originally obtained from American type Culture Collection (ATCC) and banked by the Roche repository. 384-Well microplates utilized were purchased from Greiner Bio-One, 384-well, (With Lid, HiBase, Low volume cat 784-080).
(§2) Prior to the assay, A375 and HCT116 cell lines are maintained in DMEM no-phenol red medium supplemented with 10% fetal bovine serum (FBS). Following compound treatment, P-ERK levels are determined by measuring FRET fluorescence signal induced by selective binding of 2 antibodies provided in the mentioned kit (Cisbio cat #64AERPEH) on ERK protein when phosphorylated at Thr202/Tyr204. Briefly, 8000 cells/well in 12 μl media/well are plated in the 384-well plate and left overnight in the incubator (at 37° C. with 5% CO2-humidified atmosphere), the following day the plate is treated in duplicate with test compounds, dabrafenib and PLX8394 (the latter two as controls) at the following final drug concentrations: 10 μM-3 μM 1 μM-0.3 μM-0.1 μM-0.03 μM-0, 01 μM-0.003 μM-0.001 μM, all wells are subjected to DMSO normalization and drug incubation occurs for 1 hour. Then, […] of a 4× lysis buffer supplied with the kit are added to the wells, the plate is then centrifuged for 30 second (3000 rpm) and incubated on a plate shaker for 1 h at rt.
(§3) At the end of the incubation 4 μL/well of advanced P-ERK antibody solution (prepared according to manufacturer's instruction) followed by 4 μL/well of criptate P-ERK antibody solution (prepared according to manufacturer's instruction) (Cisbio cat #64AERPEH) are added to test wells.
(§4) In order to allow proper data normalization control wells non drug treated reported in the following table are always included in each plate (according to manufacturer's instruction):
(§5) The plate is then centrifuged at 3000 rpm for 30 second, sealed to prevent evaporation and incubated overnight in the dark at room temperature.
(§6) The plate is then analyzed and fluorescence emission value collected through a Pherastast FSX (BMG Labtech) apparatus at […].
(§7) The obtained fluorescence values are processed according to the formula Ratio=[…]*10000 then the average of the ratio on the blank is subtracted to all values.
Data are normalized in the case of A375 cells (BRAF inhibition) considering the average of the ratio (blank subtracted) derived by DMSO only treated cells as 100% and by considering the average of the ratio (blank subtracted) derived by 10 μM Dabrafenib treated cells as 0%. Mean of the normalized points are fitted with sigmoidal curve and IC50 determined.
On the technique in general: TR-FRET usually uses a lanthanide donor and a delayed reading to cut background.

For assay [4], the system named is P-ERK (ERK phospho-T202/Y204) in HCT116 cells expressing WT BRAF. As to the kind of experiment: HTRF assay for P-ERK determination in HCT116 cells (BRAF activation). In kind it is cell-based. To be noted: Homo sapiens, HCT-116, drug incubation 1 hour, concentration giving 50% of the maximum activation achieved by Dabrafenib.
From the text: as §1, §2, §3, §4, §5, §6, §7
Data are normalized in the case of HCT116 cells (BRAF activation) considering the average of the ratio (blank subtracted) derived by DMSO only treated cells as 0% and by considering the average of the ratio (blank subtracted) derived by Dabrafenib treated cells at the concentration which provides the highest signal as 100%. Individual points are fitted with either sigmoidal or bell shape curves. The EC50 is the concentration at which activation equal to 50% of the maximum activation achieved by Dabrafenib is obtained.

BRAF (V600E), sequence (P15056 whole entry V600E): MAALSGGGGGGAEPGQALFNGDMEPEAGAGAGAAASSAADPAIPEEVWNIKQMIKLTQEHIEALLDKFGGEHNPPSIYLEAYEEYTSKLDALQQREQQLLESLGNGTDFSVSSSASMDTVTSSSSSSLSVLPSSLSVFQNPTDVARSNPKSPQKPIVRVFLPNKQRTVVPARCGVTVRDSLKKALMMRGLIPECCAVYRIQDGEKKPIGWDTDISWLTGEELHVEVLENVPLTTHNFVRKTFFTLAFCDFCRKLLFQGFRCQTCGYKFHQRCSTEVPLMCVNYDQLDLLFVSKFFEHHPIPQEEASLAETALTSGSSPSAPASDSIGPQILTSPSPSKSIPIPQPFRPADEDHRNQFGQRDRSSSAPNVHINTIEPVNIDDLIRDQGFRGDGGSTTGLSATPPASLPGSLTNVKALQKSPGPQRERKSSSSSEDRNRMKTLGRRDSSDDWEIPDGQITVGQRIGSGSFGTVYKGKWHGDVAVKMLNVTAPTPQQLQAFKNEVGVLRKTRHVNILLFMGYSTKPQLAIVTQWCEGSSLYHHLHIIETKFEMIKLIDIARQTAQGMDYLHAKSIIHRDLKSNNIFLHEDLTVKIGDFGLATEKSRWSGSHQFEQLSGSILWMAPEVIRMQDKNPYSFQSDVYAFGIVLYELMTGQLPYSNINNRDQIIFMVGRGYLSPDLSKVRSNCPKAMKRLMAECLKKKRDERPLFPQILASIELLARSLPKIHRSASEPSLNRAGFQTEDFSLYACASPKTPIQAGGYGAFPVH
BRAF (wt), sequence (P15056 whole entry): as the sequence (P15056 whole entry V600E) above, with E600V counted along it

Usually pKd stands for the Kd on a negative log10 scale, so that one unit is a factor of ten. Lower therefore signals a large Kd. For orientation: pIC50 means the negative decadic logarithm of the IC50, by convention in mol/L. Low readings indicate a large IC50, high ones a small IC50. Usually pEC50 stands for −log10 of the EC50, conventionally taken in molar units. On to `CC(C)(C)OC(=O)NCCCn1cnc2ccc(Oc3c(F)ccc(NS(=O)(=O)N4CCC4)c3C#N)cc2c1=O` [Example 9, tert-butyl N-[3-[6-[3-(azetidin-1-ylsulfonylamino)-2-cyano-6-fluoro-phenoxy]-4-oxo-quinazolin-3-yl]propyl]carbamate], for which the pKd is 9.01 in assay [1] and 9.16 in assay [2]. The molecule also gave a pIC50 in assay [3] of 7.54. The same molecule gave a pEC50 in assay [4] of 6.21.

For `CC(C)(C)OC(=O)N1CCN(CCn2cnc3ccc(Oc4c(F)ccc(NS(=O)(=O)N5CC[C@@H](F)C5)c4C#N)cc3c2=O)CC1` [Example 10, tert-butyl 4-[2-[6-[2-cyano-6-fluoro-3-[[(3R)-3-fluoropyrrolidin-1-yl]sulfonylamino]phenoxy]-4-oxo-quinazolin-3-yl]ethyl]piperazine-1-carboxylate], the pKd in assay [1] was 8.32; in assay [2], 8.45. Besides, the pIC50 in assay [3] is 7.44. This molecule also had a pEC50 in assay [4] of 5.81.

Take `N#Cc1c(NS(=O)(=O)C2CCCC2)ccc(F)c1Oc1ccc2ncn(CCCc3ccccc3)c(=O)c2c1` [Example 11, N-[2-cyano-4-fluoro-3-[4-oxo-3-(3-phenylpropyl)quinazolin-6-yl]oxy-phenyl]cyclopentanesulfonamide]: the pKd in assay [1] is 7.30; in assay [2], 7.61. The same molecule showed a pIC50 in assay [3] of 7.28. This molecule had a pEC50 in assay [4] of 6.04.

For the molecule `CC(C)(C)OC(=O)NCCCn1cnc2ccc(Oc3c(F)ccc(NS(=O)(=O)C4CCCCC4)c3C#N)cc2c1=O` [Example 12, tert-butyl N-[3-[6-[2-cyano-3-(cyclohexylsulfonylamino)-6-fluoro-phenoxy]-4-oxo-quinazolin-3-yl]propyl]carbamate], the pKd was 7.23 in assay [1] and 7.56 in assay [2]. Further, the pIC50 in assay [3] was 7.25. Further, the pEC50 in assay [4] is 5.31.

Take `CCC(C)S(=O)(=O)Nc1ccc(F)c(Oc2ccc3ncn(CCCNC(=O)OC(C)(C)C)c(=O)c3c2)c1C#N` (centres unmarked) [Example 13, tert-butyl N-[3-[6-[2-cyano-6-fluoro-3-(sec-butylsulfonylamino)phenoxy]-4-oxo-quinazolin-3-yl]propyl]carbamate]: the values for the pKd in assay [1] and in assay [2] were 7.71 and 7.92, respectively. The same molecule had a pIC50 in assay [3] of 7.44. The molecule further showed a negative-log EC50 (pEC50) in assay [4] of 5.55.

For `CC(C)(C)OC(=O)N1CCC(CCn2cnc3ccc(Oc4c(F)ccc(NS(=O)(=O)C5CCCCC5)c4C#N)cc3c2=O)CC1` [Example 14, tert-butyl 4-[2-[6-[2-cyano-3-(cyclohexylsulfonylamino)-6-fluoro-phenoxy]-4-oxo-quinazolin-3-yl]ethyl]piperidine-1-carboxylate], the pKd in assay [1] was 6.94; in assay [2], 7.27. Moreover, the pIC50 in assay [3] is 6.59. In assay [4], this molecule had a pEC50 of 5.31.

For `CCC(C)S(=O)(=O)Nc1ccc(F)c(Oc2ccc3ncn(CCC4CCN(C(=O)OC(C)(C)C)CC4)c(=O)c3c2)c1C#N` (centres unmarked) [Example 15, tert-butyl 4-[2-[6-[2-cyano-6-fluoro-3-(sec-butylsulfonylamino)phenoxy]-4-oxo-quinazolin-3-yl]ethyl]piperidine-1-carboxylate], the pKd was 7.03 in assay [1] and 7.30 in assay [2]. The same molecule had a negative logarithm of the IC50 (pIC50) in assay [3] of 7.10. This molecule also showed a pEC50 in assay [4] of 5.39.

For the molecule `CC(C)(C)OC(=O)N1CCN(CCn2cnc3ccc(Oc4c(F)ccc(NS(=O)(=O)N5CCCC5)c4C#N)cc3c2=O)CC1` [Example 16, tert-butyl 4-[2-[6-[2-cyano-6-fluoro-3-(pyrrolidin-1-ylsulfonylamino)phenoxy]-4-oxo-quinazolin-3-yl]ethyl]piperazine-1-carboxylate], the figures for the pKd in assay [1] and in assay [2] were 8.67 and 8.79, respectively. Besides, in assay [3], the pIC50 is 7.96. The molecule further had a pEC50 in assay [4] of 6.62.
